In patent US20090163548A1, “Method of using and comopositions comprising immunomodulatory compounds for the treatment and management of myeloproliferative diseases” (priority 2004, published 2009):

How the values were obtained:
TNF-α [1] = assay: Inhibition of TNF-α production following LPS-stimulation of human PBMC; assay type: cell-based; details: LPS-stimulated, read-out: IC50 for inhibiting production of TNF-α following LPS-stimulation of PBMC
Description: (§1) Inhibition of TNF-α production following LPS-stimulation of human PBMC and human whole blood by 3-(4-amino-1-oxo-1,3-dihydro-isoindol-2-yl)-piperidine-2,6-dione or thalidomide was investigated in vitro (Muller et al., Bioorg. Med. Chem. Lett. 9:1625-1630, 1999).

[2] = dog, in vivo
Experimental: The effects of 3-(4-amino-1-oxo-1,3-dihydro-isoindol-2-yl)-piperidine-2,6-dione on cardiovascular and respiratory function were investigated in anesthetized dogs. Two groups of Beagle dogs (2/sex/group) were used. One group received three doses of vehicle only and the other received three ascending doses of 3-(4-amino-1-oxo-1,3-dihydro-isoindol-2-yl)-piperidine-2,6-dione (2, 10, and 20 mg/kg). In all cases, doses of 3-(4-amino-1-oxo-1,3-dihydro-isoindol-2-yl)-piperidine-2,6-dione or vehicle were successively administered via infusion through the jugular vein separated by intervals of at least 30 minutes.
The only statistically significant difference between the vehicle and treatment groups was a small increase in arterial blood pressure (from 94 mmHg to 101 mmHg) following administration of the low dose of 3-(4-amino-1-oxo-1,3-dihydro-isoindol-2-yl)-piperidine-2,6-dione.

various cytokines = assay: In vitro studies of effects on the production of various cytokines, comparison with thalidomide; assay type: cell-based; details: in all in vitro cytokine production studies
Description: The pharmacological properties of 3-(4-amino-1-oxo-1,3-dihydro-isoindol-2-yl)-piperidine-2,6-dione, including activity comparisons with thalidomide, have been characterized in in vitro studies. Studies examined the effects of 3-(4-amino-1-oxo-1,3-dihydro-isoindol-2-yl)-piperidine-2,6-dione or thalidomide on the production of various cytokines. […] In addition, a safety pharmacology study of 3-(4-amino-1-oxo-1,3-dihydro-isoindol-2-yl)-piperidine-2,6-dione has been conducted in dogs and the effects of 3-(4-amino-1-oxo-1,3-dihydro-isoindol-2-yl)-piperidine-2,6-dione on ECG parameters were examined further as part of three repeat-dose toxicity studies in primates.

TNF-α [3] = assay: Inhibition of TNF-α production following LPS-stimulation of human whole blood; assay type: cell-based; details: LPS-stimulated, read-out: IC50 for inhibiting production of TNF-α following LPS-stimulation of human whole blood
Description: as §1

Compound: Nc1cccc2c1CN(C1CCC(=O)NC1=O)C2=O (stereo not shown) [3-(4-amino-1-oxo-1,3-dihydro-isoindol-2-yl)-piperidine-2,6-dione]
- IC50 (TNF-α [1]): ~100 nM
- Arterial blood pressure after administration ([2]; both, Beagle, 2 mg/kg): 101 mmHg
- Duration of the increase in arterial blood pressure ([2]; both, Beagle, 2 mg/kg): approximately 15 minutes
- Deviations in femoral blood flow, respiratory parameters, and Qtc interval [2]: not considered treatment-related
- Increase in arterial blood pressure at higher doses [2]: not seen at higher doses
- Potency relative to thalidomide (various cytokines): at least 50 times
- IC50 (TNF-α [3]): ~480 nM
